Measured values as given in US20240269139A1, “COMPOUNDS FOR TARGETED PROTEIN DEGRADATION OF KINASES” (DANA-FARBER CANCER INSTITUTE, INC., priority 2020, published 2024).
Entries after “also recorded” stand apart in the source; their conditions may differ. Where two headings read alike, the source gives them in different places.

Columns and labels:
[1] = target: T1, protein kinases (human kinome) (Homo sapiens, UniProt Q13043); type: cell-based
T1 sequence (Q13043 1-487): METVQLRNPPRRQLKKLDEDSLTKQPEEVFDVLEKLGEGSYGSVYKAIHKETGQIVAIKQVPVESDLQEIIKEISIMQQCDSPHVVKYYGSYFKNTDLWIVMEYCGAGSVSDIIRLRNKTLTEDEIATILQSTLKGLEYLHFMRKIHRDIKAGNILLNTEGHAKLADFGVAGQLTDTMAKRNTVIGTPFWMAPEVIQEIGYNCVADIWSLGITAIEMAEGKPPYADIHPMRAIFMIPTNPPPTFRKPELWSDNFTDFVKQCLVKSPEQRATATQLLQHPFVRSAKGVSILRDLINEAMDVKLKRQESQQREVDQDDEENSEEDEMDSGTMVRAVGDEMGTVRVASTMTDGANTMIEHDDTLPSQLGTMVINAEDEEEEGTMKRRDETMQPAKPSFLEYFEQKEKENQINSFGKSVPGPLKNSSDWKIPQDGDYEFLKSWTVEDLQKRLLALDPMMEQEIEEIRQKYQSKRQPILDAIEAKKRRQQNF

[2] = target: protein kinases (human kinome) (Homo sapiens, UniProt P49840); type: cell-based; conditions: GSK3A P49840; experiment wp017
Chain of protein kinases (human kinome) (Homo sapiens, UniProt P49840) (P49840 whole entry): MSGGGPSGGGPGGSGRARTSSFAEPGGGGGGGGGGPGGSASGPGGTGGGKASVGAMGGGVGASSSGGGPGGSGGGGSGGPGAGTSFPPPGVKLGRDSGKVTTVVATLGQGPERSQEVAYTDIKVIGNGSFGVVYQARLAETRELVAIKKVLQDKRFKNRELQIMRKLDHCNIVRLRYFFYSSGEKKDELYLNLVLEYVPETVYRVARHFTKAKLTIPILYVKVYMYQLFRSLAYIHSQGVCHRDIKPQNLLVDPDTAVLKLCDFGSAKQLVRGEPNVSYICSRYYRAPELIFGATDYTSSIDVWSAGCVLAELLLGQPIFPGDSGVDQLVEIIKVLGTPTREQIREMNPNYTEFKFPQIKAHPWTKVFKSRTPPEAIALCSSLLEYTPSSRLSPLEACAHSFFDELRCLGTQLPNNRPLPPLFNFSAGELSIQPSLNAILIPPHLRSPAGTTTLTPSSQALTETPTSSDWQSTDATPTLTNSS

[3] = system: protein kinases (human kinome); type: cell-based; conditions: for logFC GSK3B: experiment wp017
[4] = target: protein kinases (human kinome) (Homo sapiens, UniProt P48730); type: cell-based
Chain of protein kinases (human kinome) (Homo sapiens, UniProt P48730) (P48730 whole entry): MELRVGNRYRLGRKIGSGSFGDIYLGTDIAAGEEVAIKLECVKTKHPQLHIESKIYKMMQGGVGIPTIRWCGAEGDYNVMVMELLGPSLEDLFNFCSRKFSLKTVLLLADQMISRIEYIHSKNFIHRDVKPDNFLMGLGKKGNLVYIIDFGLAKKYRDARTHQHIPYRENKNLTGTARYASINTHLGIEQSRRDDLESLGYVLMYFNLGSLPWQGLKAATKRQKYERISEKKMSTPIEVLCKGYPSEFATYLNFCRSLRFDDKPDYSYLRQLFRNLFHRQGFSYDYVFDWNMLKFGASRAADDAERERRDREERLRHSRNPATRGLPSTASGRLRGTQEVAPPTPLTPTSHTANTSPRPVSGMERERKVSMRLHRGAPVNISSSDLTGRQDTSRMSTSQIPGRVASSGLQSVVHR

[5] = target: T2, protein kinases (human kinome) (Homo sapiens, UniProt O94768); type: cell-based
T2 sequence (O94768 1-372): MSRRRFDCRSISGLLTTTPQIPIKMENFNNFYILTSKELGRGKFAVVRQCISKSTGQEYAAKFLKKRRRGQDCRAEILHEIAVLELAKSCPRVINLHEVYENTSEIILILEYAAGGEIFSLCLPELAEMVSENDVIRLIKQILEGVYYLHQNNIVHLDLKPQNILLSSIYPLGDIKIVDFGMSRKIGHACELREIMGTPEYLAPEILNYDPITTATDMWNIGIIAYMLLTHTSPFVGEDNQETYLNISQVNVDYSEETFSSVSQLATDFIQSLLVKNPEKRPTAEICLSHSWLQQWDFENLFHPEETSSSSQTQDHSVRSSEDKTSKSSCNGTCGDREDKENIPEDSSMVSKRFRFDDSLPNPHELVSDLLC

[6] = target: protein kinases (human kinome) (Homo sapiens, UniProt Q9P1W9); type: cell-based
Chain of protein kinases (human kinome) (Homo sapiens, UniProt Q9P1W9) (Q9P1W9 whole entry): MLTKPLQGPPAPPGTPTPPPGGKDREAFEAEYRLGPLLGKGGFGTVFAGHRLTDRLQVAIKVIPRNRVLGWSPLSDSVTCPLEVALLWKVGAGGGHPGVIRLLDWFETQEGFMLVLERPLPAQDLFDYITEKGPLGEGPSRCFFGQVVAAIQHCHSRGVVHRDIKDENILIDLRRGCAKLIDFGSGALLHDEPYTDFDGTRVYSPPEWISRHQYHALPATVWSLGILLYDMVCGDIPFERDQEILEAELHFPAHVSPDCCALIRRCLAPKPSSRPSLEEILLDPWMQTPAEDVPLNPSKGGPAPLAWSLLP

[7] = target: T3, protein kinases (human kinome) (Homo sapiens, UniProt Q8TBX8); type: cell-based; conditions: PIP4K2C Q8TBX8-1; experiment wp017
T3 sequence (Q8TBX8 1-421): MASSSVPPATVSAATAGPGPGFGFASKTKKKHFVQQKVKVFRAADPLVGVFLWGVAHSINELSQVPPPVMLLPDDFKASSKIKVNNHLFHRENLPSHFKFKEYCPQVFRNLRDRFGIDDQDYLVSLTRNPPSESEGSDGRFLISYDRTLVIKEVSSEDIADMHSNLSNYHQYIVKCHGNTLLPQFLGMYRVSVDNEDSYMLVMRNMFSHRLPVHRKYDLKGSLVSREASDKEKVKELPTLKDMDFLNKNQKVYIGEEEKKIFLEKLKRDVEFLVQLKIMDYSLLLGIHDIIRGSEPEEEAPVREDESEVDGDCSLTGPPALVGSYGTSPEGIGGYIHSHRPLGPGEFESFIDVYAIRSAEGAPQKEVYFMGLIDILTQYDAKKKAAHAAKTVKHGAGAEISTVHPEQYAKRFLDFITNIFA

[8] = target: T4, protein kinases (human kinome) (Homo sapiens, UniProt O60285); type: cell-based; conditions: NUAK1 (O60285), experiment wp017
T4 sequence (O60285 1-661): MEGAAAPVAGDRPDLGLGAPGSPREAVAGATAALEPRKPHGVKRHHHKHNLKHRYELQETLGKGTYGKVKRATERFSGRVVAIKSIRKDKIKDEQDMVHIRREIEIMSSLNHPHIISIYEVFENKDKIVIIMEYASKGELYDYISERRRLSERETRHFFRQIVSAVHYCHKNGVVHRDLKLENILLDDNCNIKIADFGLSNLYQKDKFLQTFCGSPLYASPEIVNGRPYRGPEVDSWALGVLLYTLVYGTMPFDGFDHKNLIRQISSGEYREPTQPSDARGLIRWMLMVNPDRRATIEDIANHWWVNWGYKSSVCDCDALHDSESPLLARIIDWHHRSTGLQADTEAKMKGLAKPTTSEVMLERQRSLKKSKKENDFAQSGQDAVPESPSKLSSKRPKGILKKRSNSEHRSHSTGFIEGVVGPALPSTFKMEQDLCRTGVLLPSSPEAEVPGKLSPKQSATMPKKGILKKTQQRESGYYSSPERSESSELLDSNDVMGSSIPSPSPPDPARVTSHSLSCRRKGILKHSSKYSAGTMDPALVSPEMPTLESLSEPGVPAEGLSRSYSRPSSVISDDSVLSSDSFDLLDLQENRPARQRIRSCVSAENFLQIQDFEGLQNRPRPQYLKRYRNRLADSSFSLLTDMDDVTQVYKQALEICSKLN

[9] = target: protein kinases (human kinome) (Homo sapiens, UniProt O94921); type: cell-based
Chain of protein kinases (human kinome) (Homo sapiens, UniProt O94921) (O94921 whole entry): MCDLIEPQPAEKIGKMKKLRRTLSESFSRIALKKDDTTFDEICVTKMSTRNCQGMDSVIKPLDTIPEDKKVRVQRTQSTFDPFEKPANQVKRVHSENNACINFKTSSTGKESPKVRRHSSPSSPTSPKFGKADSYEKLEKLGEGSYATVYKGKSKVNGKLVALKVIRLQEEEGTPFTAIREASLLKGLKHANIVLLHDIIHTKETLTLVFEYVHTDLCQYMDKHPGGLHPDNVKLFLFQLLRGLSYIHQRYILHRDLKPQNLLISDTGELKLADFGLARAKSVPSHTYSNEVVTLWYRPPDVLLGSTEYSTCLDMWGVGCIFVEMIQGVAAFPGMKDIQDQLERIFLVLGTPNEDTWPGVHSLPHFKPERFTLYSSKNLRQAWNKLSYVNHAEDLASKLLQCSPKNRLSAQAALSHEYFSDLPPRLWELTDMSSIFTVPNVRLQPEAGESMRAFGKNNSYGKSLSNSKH

[10] = target: protein kinases (human kinome) (Homo sapiens, UniProt Q00537); type: cell-based
Chain of protein kinases (human kinome) (Homo sapiens, UniProt Q00537) (Q00537 whole entry): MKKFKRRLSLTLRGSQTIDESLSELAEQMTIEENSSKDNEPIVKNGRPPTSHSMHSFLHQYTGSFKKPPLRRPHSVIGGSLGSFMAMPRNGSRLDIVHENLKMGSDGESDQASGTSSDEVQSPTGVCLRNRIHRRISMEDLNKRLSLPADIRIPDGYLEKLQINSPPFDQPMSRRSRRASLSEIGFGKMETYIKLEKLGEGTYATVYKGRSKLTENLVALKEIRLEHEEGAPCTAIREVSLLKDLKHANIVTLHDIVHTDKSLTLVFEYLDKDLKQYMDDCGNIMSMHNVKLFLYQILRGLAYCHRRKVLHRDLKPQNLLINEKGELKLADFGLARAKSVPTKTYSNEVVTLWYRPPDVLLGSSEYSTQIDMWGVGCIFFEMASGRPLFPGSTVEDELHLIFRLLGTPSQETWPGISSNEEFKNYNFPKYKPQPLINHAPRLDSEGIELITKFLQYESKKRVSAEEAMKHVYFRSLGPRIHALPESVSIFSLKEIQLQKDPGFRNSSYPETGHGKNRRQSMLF

[11] = system: protein kinases in MOLT-4 cells; assay: Whole cell quantitative proteomics in MOLT-4 cells; conditions: MOLT-4, 1 μM, 5 h (FIG. 1J)
Description: Whole cell multiplexed quantitative proteomics was employed to measure changes in abundance of the proteome in response to treatment with each of the kinase degrader molecules relative to DMSO (Table 1, Appendix I).
Cells were treated with DMSO (biological triplicate) or degrader at indicated dose and time and cells were harvested by centrifugation. […] Precipitated protein was resuspended in 4 M Urea, 50 mM HEPES pH 7.4, followed by dilution to 1 M urea with the addition of 200 mM EPPS, pH 8. Proteins were first digested with LysC (1:50: enzyme:protein) for 12 hours at room temperature. The LysC digestion was diluted to 0.5 M Urea with 200 mM EPPS pH 8 followed by digestion with trypsin (1:50; enzyme:protein) for 6 hours at 37° C. Tandem mass tag (TMT) reagents (Thermo Fisher Scientific) were dissolved in anhydrous acetonitrile (ACN) according to manufacturer's instructions. […] The 10, 11, or 16-plex labeling reactions were performed for 1.5 hours at room temperature and the reaction quenched by the addition of hydroxylamine to a final concentration of 0.3% for 15 minutes at room temperature. The sample channels were combined at a 1:1 ratio, desalted using C18 solid phase extraction cartridges (Waters®) and analyzed by LC-MS for channel ratio comparison. Samples were then combined using the adjusted volumes determined in the channel ratio analysis and dried down in a speed vacuum. The combined sample was then resuspended in 1% formic acid, and acidified (pH 2-3) before being subjected to desalting with C18 SPE (Sep-Pak®, Waters®). Samples were then offline fractionated into 96 fractions by high pH reverse-phase HPLC (Agilent® LC1260) through an aeris peptide xb-c18 column (Phenomenex®) with mobile phase A containing 5% acetonitrile and 10 mM NH4HCO3 in LC-MS grade H2O, and mobile phase B containing 90% acetonitrile and 10 mM NH4HCO3 in LC-MS grade H2O (both pH 8.0). The 96 resulting fractions were then pooled in a non-continuous manner into 24 fractions and desalted using C18 solid phase extraction plates (SOLA®, Thermo Fisher Scientific) followed by subsequent mass spectrometry analysis.
Data were collected using an Orbitrap Fusion™ Lumos™ mass spectrometer (Thermo Fisher Scientific, San Jose, CA, USA) coupled with a Proxeon EASY-nLC™ 1200 LC pump (Thermo Fisher Scientific) or an Orbitrap Eclipse™ Tribrid™ mass spectrometer (Thermo Fisher Scientific, San Jose, CA, USA) coupled with an UltiMate™ 3000 RSLCnano System. Peptides were separated on an EasySpray™ ES803a/ES803a.rev2 75 μm inner diameter microcapillary column (ThermoFisher Scientific).
Data dependent MS2 spectra were acquired in the ion trap with a normalized collision energy (NCE) set at 35%, AGC target set to 1.8×10^4 and a maximum injection time of 120 ms. MS3 scans were acquired in the Orbitrap with HCD collision energy set to 55%. AGC target set to 2×10^5, maximum injection time of 150 ms, resolution at 50,000 and with a maximum synchronous precursor selection (SPS) precursors set to 10.
Proteome Discoverer™ 2.1, 2.2 or 2.4 (Thermo Fisher Scientific) was used for .RAW file processing and controlling peptide and protein level false discovery rates, assembling proteins from peptides, and protein quantification from peptides.

`Nc1ncc(-c2ccc(S(=O)(=O)N(CCCNC(=O)CCOCCOCCOCCOCCOCCNc3cccc4c3C(=O)N(C3CCC(=O)NC3=O)C4=O)C3CC3)cc2F)cc1-c1ccc2c(c1)CCNC2=O` (stereo not shown) [WH.9533.153] was tested, and the “logFC of STK4 (Q13043-1)” value ([1]; Experiment wp017) was −0.4936, the logFC ([1]; STK4 (Q13043-1), experiment wp017) was −0.4936 and the logFC [2] was −0.4833. For the same compound, the “logFC GSK3A” value [2] was −0.4833, the “logFC GSK3B” value ([3]; Accession P49841-2, direction down) was −1.317 and the “logFC GSK3B” value ([3]; GSK3B P49841-2) was −1.317. The “logFC CSNK1D” value ([4]; Accession P48730-1, experiment wp017, direction down) was −0.7788, the “logFC of CSNK1D (P48730-1)” value ([4]; Experiment wp017) was −0.7788 and the “logFC STK17B (O94768)” value ([5]; Experiment wp017, direction down) was −0.7595. For the same compound, the logFC ([5]; STK17B (O94768), experiment wp017) was −0.7595, the “logFC of PIM2 (Q9P1W9)” value ([6]; Experiment wp017) was −0.4936 and the logFC ([6]; PIM2 (Q9P1W9), experiment wp017) was −0.4936. It also gave a logFC [7] of −0.7144, a logFC [8] of −1.367 and a logFC ([8]; direction down) of −1.367. For the same compound, the logFC ([9]; CDK14 (O94921-1), experiment wp017) was −0.4637 and the “logFC of CDK14 (O94921-1)” value ([9]; Experiment wp017) was −0.4637.
In the case of `Cc1ncsc1-c1ccc([C@H](C)NC(=O)[C@@H]2C[C@@H](O)CN2C(=O)[C@@H](NC(=O)CCOCCOCCNc2nccc(-c3sc(C(C)(C)C)nc3-c3cccc(NS(=O)(=O)c4c(F)cccc4F)c3F)n2)C(C)(C)C)cc1` [DD-03-156, (2S,4R)-1-((S)-2-(3-(2-(2-((4-(2-(tert-butyl)-4-(3-((2,6-difluorophenyl)sulfonamido)-2-fluorophenyl)thiazol-5-yl)pyrimidin-2-yl)amino)ethoxy)ethoxy)propanamido)-3,3-dimethylbutanoyl)-4-hydroxy-N—((S)-1-(4-(4-methylthiazol-5-yl)phenyl)ethyl)pyrrolidine-2-2377 carboxamide], the “kinases the bifunctional compound degrades” value ([3]; as stated for the structure in the embodiments) is reported as “CDK17, LIMK1, and LIMK2”, the Kinase hits ([3]; kinases significantly downregulated vs DMSO (fold change cutoff −1.25, P-value<0.01), ≤8 h, 0.1-5 μM degrader, 7 cell lines) is reported as “CDK17, LIMK1, LIMK2” and the “Total no. kinase hits” value ([3]; number of degraded kinases per library compound) is reported as 3. The “preference for degrading CDK17” value [10] was “strong preference for degrading CDK17” and the “degradation profile (potency and selectivity)” value [11] was “potent and selective degradation of only CDK17 and LIMK2; also recorded: exquisite”.
